Measured values taken from ChEMBL document CHEMBL3352648, “Bioactive constituents of Cirsium japonicum var. australe” (J Nat Prod, 2014).
In brackets after ≈: the same amount, converted by molar mass. Activity calls are given as the source filed them. The calls are words filed in the database; no cut-off is given here.

Experiments:
3T3-L1 [1] = assay: Hypoglycemic activity in mouse 3T3L1 cells assessed as increase in glucose consumption at 25 ug/ml after 24 hrs by 2-deoxyglucose uptake assay; format: functional, cell-based
3T3-L1 [2] = assay: Hypoglycemic activity in mouse 3T3L1 cells assessed as increase in glucose consumption at 12.5 ug/ml after 24 hrs by 2-deoxyglucose uptake assay; format: functional, cell-based
3T3-L1 [3] = assay: Effect on lipid accumulation in mouse 3T3L1 cells at 20 ug/ml for 7 days by Oil Red O dye; format: functional, cell-based
3T3-L1 [4] = assay: Hypoglycemic activity in mouse 3T3L1 cells assessed as increase in glucose consumption at 50 ug/ml after 24 hrs by 2-deoxyglucose uptake assay; format: functional, cell-based
[5] = Antioxidant activity assessed as ABTS radical scavenging activity; format: physicochemical
[6] = Antioxidant activity assessed as DPPH radical scavenging activity; format: physicochemical
3T3-L1 [7] = assay: Hypoglycemic activity in mouse 3T3L1 cells assessed as increase in glucose consumption at 50 ug/ml after 24 hrs by 2-deoxyglucose uptake assay

Row | EC50 [5] | EC50 [6] | SMILES | Activity (3T3-L1 [1]) | Activity (3T3-L1 [2]) | Activity (3T3-L1 [3]) | Activity (3T3-L1 [4]) | Activity (3T3-L1 [7])
1 | – | – | C=CCCCCCC(O)C(O)C(O)C#CC#CCCC (stereo not drawn) | Active | Active | inactive | Active | –
2 | 0.19 µg/mL (≈ 0.913 µM) | 0.18 µg/mL (≈ 0.864 µM) | CCOC(=O)/C=C/c1ccc(O)c(O)c1 [ETHYL CAFFEATE] | – | – | – | Active | –
3 | – | – | O=c1cc(-c2ccc(O)cc2)oc2cc(O)cc(O)c12 | – | – | – | – | inactive
